Experimental data reported in patent US9968572B2, “Clonidine and GABA compounds in a biodegradable polymer carrier” (Warsaw Orthopedic, Inc., priority 2010, dated 2018).

What was measured:
[1] = test system: Sprague Dawley rats with chronic constriction injury (CCI) of the sciatic nerve; experiment: Thermal hyperalgesia paw withdrawal latency after chronic constriction injury of the sciatic nerve; type: in vivo; settings: rat CCI model; gabapentin 90 mg/kg subcutaneous 1 hour prior to each assessment; days 7, 14, 21 post-CCI; injured (rt) limb; vs vehicle (PBS); 2-factor ANOVA, p<0.0001
Experimental: (§1) Rats were treated with a subcutaneous human equivalent dose of 885 mcg of gabapentin 1 hour prior to testing.
(§2) Eight Sprague Dawley rats were given a chronic constriction injury (CCI) of the sciatic nerve. The CCI was induced as described by Bennett and Xie (1988). Animals were anesthetized with pentobarbital (60 mg/kg). The right common sciatic nerve was exposed by blunt dissection between the femoral biceps and quadriceps muscle and freed from adherent tissue. Four loose ligatures were placed 1 mm apart using 4-0 chromic gut absorbable sutures. Four animals received a subcutaneous injection of gabapentin (90 mg/kg) 1 hour prior to each post-CCI pain assessment (BP) and four animals received vehicle (PBS) injections. Thermal hyperalgesia paw withdrawal latency response of the injured (rt) limb was measured 2 days before the CCI and on days 7, 14, and 21 post-CCI surgery. This is considered a model of neuropathic pain. FIG. 3 is a bar graph illustration showing that Von Frey withdrawal threshold is increased by gabapentin in rats with an injury to the sciatic nerve.

[2] = test system: Sprague Dawley rats with chronic constriction injury (CCI) of the sciatic nerve; experiment: Mechanical paw withdrawal (allodynia) Von Frey threshold after chronic constriction injury of the sciatic nerve; type: in vivo; settings: rat CCI model; gabapentin 90 mg/kg subcutaneous 1 hour prior to each assessment; days 8, 15, 22 post-CCI; vs vehicle (PBS); 2-factor ANOVA, p<0.001
Experimental: as §1, §2
Mechanical paw withdrawal (allodynia) thresholds of each animal were measured the day before the CCI and on days 8, 15, and 22. FIG. 4 is a bar graph illustration showing that thermal withdrawal latency is increased by gabapentin in rats with an injury to the sciatic nerve. This is considered a model of tactile somatic pain.

NCC1(CC(=O)O)CCCCC1 [gabapentin, 2-[1-(aminomethyl)cyclohexyl]acetic acid]
Thermal withdrawal latency, expressed as a percent of baseline [1]: significantly higher | Von Frey threshold, expressed as a percent of baseline [2]: significantly higher
